Measurements taken from US4556715A, “Nicotinic acid derivatives” (Kyorin Pharmaceutical Co., Ltd., priority 1980, dated 1985).
Where two headings read alike, the source gives them in different places.

Key:
[1] = test system: serum and liver lipid levels in normal rats; assay: Effects on relative liver weight, serum and liver lipid levels in normal rats (100 mg/kg, 7 days); type: in vivo, Male Wistar strain rats
Description: (1) Effects on relative liver weight, serum and liver lipid levels in normal rats
Male Wistar strain rats, weighing 180-210 g were orally administered the present compounds (X=Cl, n1 =2, 3, 4 and n2 =1) and 4-(4-chlorobenzyloxy)benzyl nicotinate (KCD-232), being X=Cl, n1 =1, n2 =1, respectively, which were suspended in 0.5% carboxymethyl cellulose (CMC) solution once a day at a dose of 100 mg/kg b.w. for 7 days. The last administration was occured in rats fasted overnight. At 4 hr later blood was withdrawn from jugular vein, clotted and centrifuged to obtain serum. The liver was rapidly removed and weighed. Total lipids were extracted from the serum and liver, and cholesterol (Ch), triglycerides (TG) and phospholipids (PL) levels were determined.

[2] = test system: serum and liver lipid levels in rats; assay: Serum and liver lipid levels and relative liver weight in rats (100 mg/kg, 10 days); type: in vivo, Male rats of the Wistar strain; conditions: for response vs control in vivo at 100 mg/kg: Rattus norvegicus, po; for response vs control in vivo at 100 mg/kg / Relative liver weight, relative to Control (100): in parentheses, Control = (100); for Liver lipid levels Ch / Liver lipid levels PL / Liver lipid levels TG / Relative liver weight / Serum lipid levels Ch / Serum lipid levels PL / Serum lipid levels TG: 100 mg/kg p.o. 10 days, Mean ± S.E. (n = 9)
Description: (2) Male rats of the Wistar strain weighing 160-180 g were fed a stock deit (CE-2, Japan CLEA, Tokyo) and water ad libitum. The present compounds and KCD-232 were suspended, respectively, in a 0.5% of CMC solution and give orally to rats once a day at a dose of 100 mg/kg b.w. for 10 days.
Control rats were received the 0.5% CMC solution alone. The diet was withdrawn immediately after the last administration of compounds. Animals were sacrificed by decapitation 4 hr after the last administration and blood was collected, clotted and centrifuged to obtain serum. The liver was excised quickly and weighed. Total lipids were extracted from the serum and liver, and the levels of Ch, TG and PL were determined colorimetrically.

[3] = test system: serum and liver lipid levels in rats; assay: Serum and liver lipid levels and relative liver weight in rats (25 mg/kg, 10 days); type: in vivo, male Wistar rats; conditions: Table 4
Description: (3) The present compounds and KCD-232 were orally given to male Wistar rats weighing 160-180 g once a day at a dose of 25 mg/kg b.w. for 10 days. Rats were subjected to fast for 4 hr immediately after the last administration of compounds, thereafter they were sacrificed by decapitation and blood was collected, clotted and centrifuged to obtain serum. The liver was removed quickly and weighed. Total lipids were extracted from the serum and liver, and then the levels of total Ch, TG and PL were determined with colorimetric methods.

in vivo = conditions: mouse, po, p o, male ICR mice
Source text: The present compounds were given to 6 week-old male mice of the ICR strain and their acute toxicity was examined.

[4] = Table 1, 100 mg/kg p.o. 7 days, fasted overnight, mean ± S.E. (n = 6)
[5] = Table 1, in parentheses, Control = (100)
[6] = 25 mg/kg p.o. 10 days, Mean ± S.E. (n = 7)
[7] = in parentheses, Control = (100)

O=C(OCc1ccc(OCc2ccc(Cl)cc2)cc1)c1cccnc1 [KCD-232, 4-(4-chlorobenzyloxy)benzyl nicotinate, reference compound]
Liver lipid levels Ch [1, 4]: 3.88 ± 0.12 mg/g liver | Liver lipid levels PL [1, 4]: 36.6 ± 0.7 mg/g liver | Liver lipid levels TG [1, 4]: 21.45 ± 2.23 mg/g liver | Serum lipid levels Ch [1, 4]: 58.5 ± 5 mg/dL | Serum lipid levels PL [1, 4]: 77.7 ± 6.4 mg/dL | Serum lipid levels TG [1, 4]: 23.4 ± 2.2 mg/dL | Relative liver weight ([1]; Table 1, 100 mg/kg p.o. 7 days, mean ± S.E. (n = 6)): 3.20 ± 0.10 g/100 g b.w. | Liver lipid levels Ch, relative to Control (100) [1, 5]: 110 | Liver lipid levels PL, relative to Control (100) [1, 5]: 99 | Liver lipid levels TG, relative to Control (100) [1, 5]: 291 | Relative liver weight, relative to Control (100) [1, 5]: 104 | Serum lipid levels Ch, relative to Control (100) [1, 5]: 77 | Serum lipid levels PL, relative to Control (100) [1, 5]: 76 | Serum lipid levels TG, relative to Control (100) [1, 5]: 69 | liver TG level (in words) ([1]; last administration in rats fasted overnight): remarkably rose liver TG level | response vs control in vivo at 100 mg/kg ([2]; 240 h, Table 2, read-out: Liver lipid levels PL, relative to Control (100)): 99.2% | response vs control in vivo at 100 mg/kg ([2]; 240 h, Table 3, read-out: Liver lipid levels PL, relative to Control (100)): 99.7% | response vs control in vivo at 100 mg/kg ([2]; Table 2, read-out: Liver lipid levels Ch, relative to Control (100)): 104% | response vs control in vivo at 100 mg/kg ([2]; Table 2, read-out: Liver lipid levels TG, relative to Control (100)): 63.3% | response vs control in vivo at 100 mg/kg ([2]; Table 2, read-out: Serum lipid levels Ch, relative to Control (100)): 72.5% | response vs control in vivo at 100 mg/kg ([2]; Table 2, read-out: Serum lipid levels PL, relative to Control (100)): 67.3% | response vs control in vivo at 100 mg/kg ([2]; Table 2, read-out: Serum lipid levels TG, relative to Control (100)): 32.7% | response vs control in vivo at 100 mg/kg ([2]; Table 3, read-out: Liver lipid levels Ch, relative to Control (100)): 103% | response vs control in vivo at 100 mg/kg ([2]; Table 3, read-out: Liver lipid levels TG, relative to Control (100)): 65.2% | response vs control in vivo at 100 mg/kg ([2]; Table 3, read-out: Serum lipid levels Ch, relative to Control (100)): 70% | response vs control in vivo at 100 mg/kg ([2]; Table 3, read-out: Serum lipid levels PL, relative to Control (100)): 62.1% | response vs control in vivo at 100 mg/kg ([2]; Table 3, read-out: Serum lipid levels TG, relative to Control (100)): 36.1% | Liver lipid levels Ch ([2]; Table 2): 3.15 ± 0.08 mg/g liver | Liver lipid levels PL ([2]; Table 2): 37.8 ± 0.6 mg/g liver | Liver lipid levels TG ([2]; Table 2): 4.00 ± 0.28 mg/g liver | Relative liver weight ([2]; Table 2): 4.05 ± 0.05 g/100 g b.w. | Serum lipid levels Ch ([2]; Table 2): 62.8 ± 3 mg/dL | Serum lipid levels PL ([2]; Table 2): 100 ± 4.6 mg/dL | Serum lipid levels TG ([2]; Table 2): 40.5 ± 2.7 mg/dL | Relative liver weight, relative to Control (100) ([2]; Table 2): 105 | Liver lipid levels Ch ([2]; Table 3): 2.39 ± 0.07 mg/g liver | Liver lipid levels PL ([2]; Table 3): 36.1 ± 0.4 mg/g liver | Liver lipid levels TG ([2]; Table 3): 4.67 ± 0.42 mg/g liver | Relative liver weight ([2]; Table 3): 3.71 ± 0.07 g/100 g b.w. | Serum lipid levels Ch ([2]; Table 3): 68.3 ± 3.1 mg/dL | Serum lipid levels PL ([2]; Table 3): 96.8 ± 3.4 mg/dL | Serum lipid levels TG ([2]; Table 3): 45.3 ± 3.5 mg/dL | Relative liver weight, relative to Control (100) ([2]; Table 3): 98 | Liver lipid levels Ch [3, 6]: 2.98 ± 0.08 mg/g liver | Liver lipid levels PL [3, 6]: 40.2 ± 0.6 mg/g liver | Liver lipid levels TG [3, 6]: 4.36 ± 0.65 mg/g liver | Relative liver weight [3, 6]: 3.72 ± 0.07 g/100 g b.w. | Serum lipid levels Ch [3, 6]: 63.5 ± 3.1 mg/dL | Serum lipid levels PL [3, 6]: 89 ± 4.4 mg/dL | Serum lipid levels TG [3, 6]: 31.3 ± 2.9 mg/dL | Liver lipid levels Ch, relative to Control (100) [3, 7]: 91.7 | Liver lipid levels PL, relative to Control (100) [3, 7]: 105.8 | Liver lipid levels TG, relative to Control (100) [3, 7]: 58.6 | Relative liver weight, relative to Control (100) [3, 7]: 105 | Serum lipid levels Ch, relative to Control (100) [3, 7]: 81.4 | Serum lipid levels PL, relative to Control (100) [3, 7]: 82.3 | Serum lipid levels TG, relative to Control (100) [3, 7]: 82.8 | LD50 (in vivo): 345 mg/kg
